ChEMBL document CHEMBL1134994, “Synthesis and in vitro antiprotozoal activity of 5-nitrothiophene-2-carboxaldehyde thiosemicarbazone derivatives” (Bioorg Med Chem Lett, 2002)

Each compound was assayed on Giardia intestinalis (assay: Inhibitory concentration against G. Lamblia (IMSS-0989) for antigiardial activity). Settings: Giardia duodenalis.
Assay type: functional, organism-based
With `CCCC/N=C(\S)N/N=C/c1ccc([N+](=O)[O-])s1` the IC50 was 17.2 µM.
With `CC(C)CN(CC(C)C)/C(S)=N/N=C/c1ccc([N+](=O)[O-])s1` the IC50 was 12 µM.
`O=[N+]([O-])c1ccc(/C=N/N=C(\S)N2CCCCCC2)s1` showed an IC50 of 8.47 µM.
With `O=[N+]([O-])c1ccc(/C=N/N=C(\S)NC2CCCCC2)s1` the IC50 was 13.9 µM.
`CCC/N=C(\S)N/N=C/c1ccc([N+](=O)[O-])s1` was tested, and the IC50 was 57.3 µM.
Work on `CCCN(CCC)/C(S)=N/N=C/c1ccc([N+](=O)[O-])s1` yielded an IC50 of 8.2 µM.
`CN(/C(S)=N/N=C/c1ccc([N+](=O)[O-])s1)C1CCCCC1` was tested, and the IC50 was 11.7 µM.
Work on `CCN(CC)/C(S)=N/N=C/c1ccc([N+](=O)[O-])s1` yielded an IC50 of 8.03 µM.
`CC(C)C/N=C(\S)N/N=C/c1ccc([N+](=O)[O-])s1` showed an IC50 of 33.3 µM.
Work on `CC(C)/N=C(\S)N/N=C/c1ccc([N+](=O)[O-])s1` yielded an IC50 of 26.2 µM.
In the case of `O=[N+]([O-])c1ccc(/C=N/N=C(\S)NC2CCCC2)s1`, the IC50 is reported as 33 µM.
For `Cc1ncc([N+](=O)[O-])n1CCO` [METRONIDAZOLE], the IC50 was 1.16 µM.

These compounds were tested on Entamoeba histolytica (assay: Inhibitory concentration against Entamoeba histolytica (HK-9) for antiprotozoal activity). Settings: not given.
Assay type: functional, organism-based
Compound `CCCC/N=C(\S)N/N=C/c1ccc([N+](=O)[O-])s1` has an IC50 of 12.2 µM.
In the case of `CC(C)CN(CC(C)C)/C(S)=N/N=C/c1ccc([N+](=O)[O-])s1`, the IC50 is reported as 11.6 µM.
`O=[N+]([O-])c1ccc(/C=N/N=C(\S)N2CCCCCC2)s1` showed an IC50 of 1.71 µM.
`O=[N+]([O-])c1ccc(/C=N/N=C(\S)NC2CCCCC2)s1` was tested, and the IC50 was 2.41 µM.
Compound `CCC/N=C(\S)N/N=C/c1ccc([N+](=O)[O-])s1` has an IC50 of 15.4 µM.
Work on `CCCN(CCC)/C(S)=N/N=C/c1ccc([N+](=O)[O-])s1` yielded an IC50 of 6.4 µM.
In the case of `CN(/C(S)=N/N=C/c1ccc([N+](=O)[O-])s1)C1CCCCC1`, the IC50 is reported as 8.3 µM.
Work on `CCN(CC)/C(S)=N/N=C/c1ccc([N+](=O)[O-])s1` yielded an IC50 of 10.1 µM.
With `CC(C)C/N=C(\S)N/N=C/c1ccc([N+](=O)[O-])s1` the IC50 was 13.5 µM.
Compound `CC(C)/N=C(\S)N/N=C/c1ccc([N+](=O)[O-])s1` has an IC50 of 9.6 µM.
For `O=[N+]([O-])c1ccc(/C=N/N=C(\S)NC2CCCC2)s1`, the IC50 was 2.86 µM.
Work on `Cc1ncc([N+](=O)[O-])n1CCO` [METRONIDAZOLE] yielded an IC50 of 2.1 µM.

These compounds were tested on Trichomonas vaginalis (assay: Inhibitory concentration against Trichomonas vaginalis (tv-43) for anti-trichomonal activity). Settings: not given.
Assay type: functional, organism-based
With `CCCC/N=C(\S)N/N=C/c1ccc([N+](=O)[O-])s1` the IC50 was 1.49 µM.
`CC(C)CN(CC(C)C)/C(S)=N/N=C/c1ccc([N+](=O)[O-])s1` showed an IC50 of 4.44 µM.
`O=[N+]([O-])c1ccc(/C=N/N=C(\S)N2CCCCCC2)s1` was tested, and the IC50 was 8.78 µM.
For `O=[N+]([O-])c1ccc(/C=N/N=C(\S)NC2CCCCC2)s1`, the IC50 was 10.7 µM.
In the case of `CCC/N=C(\S)N/N=C/c1ccc([N+](=O)[O-])s1`, the IC50 is reported as 21 µM.
`CCCN(CCC)/C(S)=N/N=C/c1ccc([N+](=O)[O-])s1` was tested, and the IC50 was 4.06 µM.
`CN(/C(S)=N/N=C/c1ccc([N+](=O)[O-])s1)C1CCCCC1` gave an IC50 of 18.3 µM.
In the case of `CCN(CC)/C(S)=N/N=C/c1ccc([N+](=O)[O-])s1`, the IC50 is reported as 6.01 µM.
In the case of `CC(C)C/N=C(\S)N/N=C/c1ccc([N+](=O)[O-])s1`, the IC50 is reported as 6.31 µM.
Work on `CC(C)/N=C(\S)N/N=C/c1ccc([N+](=O)[O-])s1` yielded an IC50 of 5.94 µM.
`O=[N+]([O-])c1ccc(/C=N/N=C(\S)NC2CCCC2)s1` was tested, and the IC50 was 3.97 µM.
In the case of `Cc1ncc([N+](=O)[O-])n1CCO` [METRONIDAZOLE], the IC50 is reported as 1.92 µM.
